Assay results as given in patent US20220305129A1, “CONJUGATES OF HETEROAROMATIC NITROGEN-COMPRISING COMPOUNDS” (Ascendis Pharma A/S, priority 2019, published 2022).

assay: In vitro release kinetics: cleavage rate of the reversible bond in aqueous buffer; format: physicochemical; conditions: aqueous buffer (sodium phosphate with acetonitrile), pH 7.4, 37° C., 48 mM sodium phosphate, 20% acetonitrile, disappearance of conjugate by LCMS (UV), read-out: t1/2 (pH 7.4) (converted)
Description: The cleavage rate of the reversible bond from conjugates 6, 10 and 11 was monitored at pH 7.4 and 37° C. in aqueous buffer (pH 7.4 48 mM sodium phosphate, 20% acetonitrile). The disappearance of the conjugate was determined by LCMS (UV detection) and fitted with curve fitting software to obtain the half-life of the release.

Row | half-life [h] | SMILES
1 | 137 | CCOC(c1ccccc1)n1ncc2ccccc21 (stereo not drawn) [Compound 11]
2 | 192 | CCOC(c1ccccc1)n1cnc2ccccc21 (stereo not drawn) [Compound 6]
3 | 10 | CCOC(c1ccc(CC(=O)O)cc1)n1cnc2ccccc21 (stereo not drawn) [Compound 10]
